Results reported in patent US20030207811A1, “Method of treating retinopathy of prematurity using somatostatin analogs” (priority 2002, published 2003).
Entries after “also recorded” stand apart in the source; their conditions may differ. Bridge positions count the residues as written; N and C are the ends. Square brackets hold non-standard residues; d marks the D form. Peptide text beside a SMILES is read from it.

What was measured:
[1] = system: oxygen induced retinopathy; assay: Oxygen induced retinopathy in neonatal mice, retinal scoring of fluorescein perfused whole mounts; format: in vivo, C57BL6 mice; conditions: for retinal neovascularization: mouse model of oxygen induced retinopathy; for median total retinopathy score / median total retinopathy score [median(25th, 75th quartile)]: oxygen reared; for median total retinopathy score [median(25th, 75th quartile)]: octreotide 20 μg kg^−1 bid s.c. P12-P16
Experimental: (§1) This protocol was approved by the Georgetown University Animal Care and Use committee and adhered to the Association for Research in Vision and Ophthalmology Statement for the Use of Animals in Ophthalmic and Vision Research. C57BL6 mice were obtained from Taconic Laboratories (Germantown, N.Y.). Neonatal mice were placed in an infant incubator with their nursing mother with 75% oxygen at P7 and remained in oxygen until removal to room air at P12 (Smith et al., 1994 Invest. Ophthalmol. Vis. Sci. 35, 101-11). Oxygen was delivered at 75±2%, measured with an oxygen analyser (Hudson Ventonics, Temecula, Calif., U.S.A.), and checked at least twice daily. Individual litters were either oxygen or room air reared. Within litters, differential treatment was performed including no treatment, octreotide, Woc4D, and sham injection. Animals were treated with injections for 5 days from P12 to P16. Animal killing was performed using a lethal dose of pentobarbital (120 mg/kg i.p.). Animals were perfused with fluorescein conjugated dextran as previously described (D'Amato et al., 1993, Microvasc. Res. 46, 135-42) and retinopathy was assessed by a retinal scoring system shown in Table I.
It was received and used as the acetate salt. Octreotide acetate was purchased from Polypeptide Laboratories. […] The analogs were dissolved in 33 mM acetate buffer (pH 5) with 135 mM NaCl. Sham injections were performed with that vehicle.
Retinopathy scores were evaluated by the Kruskal-Wallis test for the overall group and by the Mann-Whitney test to determine differences between groups. Animals weights and GH expression were evaluated using Student's t-test. Statistical significance was determined at the P<0.05 level.

SSTR2 [2] = target: T1, SSTR2 (Homo sapiens, UniProt P30874); conditions: agonist analog; cited from earlier work
T1 sequence (P30874 whole entry, species assumed): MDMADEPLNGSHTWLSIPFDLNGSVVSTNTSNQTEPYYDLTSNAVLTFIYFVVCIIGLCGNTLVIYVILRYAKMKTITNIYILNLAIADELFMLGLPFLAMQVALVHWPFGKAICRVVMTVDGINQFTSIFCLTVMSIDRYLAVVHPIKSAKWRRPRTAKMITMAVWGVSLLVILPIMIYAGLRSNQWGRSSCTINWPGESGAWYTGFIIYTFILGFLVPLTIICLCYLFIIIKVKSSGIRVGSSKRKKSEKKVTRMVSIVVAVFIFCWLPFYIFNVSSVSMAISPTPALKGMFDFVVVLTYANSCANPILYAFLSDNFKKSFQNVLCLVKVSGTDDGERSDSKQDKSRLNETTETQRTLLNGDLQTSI

[3] = Growth as measured by animal weight; format: in vivo, C57BL6 mice; conditions: Woc4D or octreotide treatment P12-P16
Experimental: as §1, with “Animal killing was performed using a lethal dose of pentobarbital (120 mg/kg i.p.).” left out, “I. […]” for “I.”
Retinopathy scores were evaluated by the Kruskal-Wallis test for the overall group and by the Mann-Whitney test to determine differences between groups. Animals weights and GH expression were evaluated using Student's t-test. Statistical significance was determined at the P<0.05 level. […]

[4] = system: pituitary growth hormone (GH) mRNA; assay: Pituitary growth hormone mRNA expression by RT-PCR; format: in vivo, C57BL6 mice
Experimental: RNA was extracted using TRIzol reagent (Life Technologies, Rockville, Md., U.S.A.) as described by the manufacturer and reverse transcriptase polymerase chain reaction (RT-PCR) was performed. Ten μg of RNA and 2 μM oligo(dT) 16 (total volume 22 μl) were heated at 68° C. for 2 min and cooled on ice. […] The mixture was incubated at 42° C. for 1 hour, then 99° C. for 5 min. The resultant cDNA was diluted with 100 μl of water and stored at -20° C. until PCR was performed. […] The mixture was incubated for 4 min at 94° C., followed by 28 cycles of 45 s at 94° C., 45 s at 58° C., and 45 s at 72° C., followed by 7 min at 72° C., in a PCR apparatus (model 2400, Perkin Elmer). To verify equal amounts of RNA were used in the PCR reaction and to verify uniform amplification process, β-actin mRNA was also amplified from the sample as an internal control. […] A 100 bp DNA ladder was used as a size marker. The number of cycles versus intensity of the PCR band was evaluated to determine the optimum number of cycles to be in the linear range. […] Retinopathy scores were evaluated by the Kruskal-Wallis test for the overall group and by the Mann-Whitney test to determine differences between groups. Animals weights and GH expression were evaluated using Student's t-test. Statistical significance was determined at the P<0.05 level.

SSTR2 [5] = target: T1, SSTR2; conditions: cited from earlier work

For C[C@@H](O)[C@H](NC(=O)[C@@H]1CSSC[C@H](NC(=O)[C@@H](Cc2ccc(O)cc2)NC(=O)[C@@H](Cc2ccc(O)cc2)NC(=O)[C@@H](Cc2ccc(O)cc2)NC(=O)[C@H](N)Cc2ccc(O)cc2)C(=O)N[C@@H](Cc2ccccc2)C(=O)N[C@H](Cc2c[nH]c3ccccc23)C(=O)N[C@@H](CCCCN)C(=O)N[C@@H]([C@@H](C)O)C(=O)N1)C(N)=O [Woc4D, Dtyr-Dtyr-Dtyr-Dtyr-cyclo(Cys-Phe-DTrp-Lys-Thr-Cys)-Thr-NH2] (H-[dY][dY][dY][dY]CF[dW]KTCT-NH2; disulfide 5-10; N-terminus assumed), the “Blood vessel growth subscore, median” value ([1]; Oxygen + Woc4D 50) was 0, the “Blood vessel tortuosity subscore, median” value ([1]; Oxygen + Woc4D 50) was 1 and the “Hemorrhage subscore, median” value ([1]; Oxygen + Woc4D 50) was 1. For the same compound, the “Blood vessel growth subscore, median (25th, 75th quartile)” value ([1]; Room air + Woc4D 50) was 0 (0, 0), the “Blood vessel tortuosity subscore, median (25th, 75th quartile)” value ([1]; Room air + Woc4D 50) was 0 (0, 0) and the “Blood vessel tufts subscore, median (25th, 75th quartile)” value ([1]; Room air + Woc4D 50) was 0 (0, 0). The “Central vasoconstriction subscore, median (25th, 75th quartile)” value ([1]; Room air + Woc4D 50) was 0 (0, 0), the “Extra retinal neovascularization subscore, median (25th, 75th quartile)” value ([1]; Room air + Woc4D 50) was 0 (0, 0) and the “Hemorrhage subscore, median (25th, 75th quartile)” value ([1]; Room air + Woc4D 50) was 0 (0, 0). The retinal neovascularization [1] was “inhibited retinal neovascularization in an equally effective manner”, the “retinal vascular pathology in retinal whole mount (FIG. 3)” value ([1]; oxygen exposed, Woc4D treated animal) was “less retinal vascular pathology” and the “median total retinopathy score” value ([1]; Woc4D 20 μg kg^−1 day^−1 P12-P16) was 6(3,7). The “affinity of interaction with SSTR2” value (SSTR2 [2]) was “high affinity”, the “growth as measured by animal weight” value [3] was “unaffected” and the “oxygen stimulated GH mRNA” value ([4]; oxygen + Woc4D 50 μg kg^−1 day^−1 P12-P16) was “markedly reduced”.

For C[C@@H](O)[C@@H]1NC(=O)[C@H](CCCCN)NC(=O)[C@@H](Cc2c[nH]c3ccccc23)NC(=O)[C@H](Cc2ccccc2)NC(=O)[C@@H](NC(=O)[C@H](N)Cc2ccccc2)CSSC[C@@H](C(=O)N[C@H](CO)[C@@H](C)O)NC1=O [octreotide, D-Phe-Cys-Phe-D-Trp-Lys-Thr-Cys Thr(ol)], the “receptor selectivity of stimulation” value (SSTR2 [5]) is listed as “effective in stimulating SSTR2 to the virtual exclusion of the other receptors”, the “Blood vessel growth subscore, median” value ([1]; Oxygen + oct 20 bid) is listed as 0 and the “Blood vessel tufts subscore, median” value ([1]; Oxygen + oct 20 bid) is listed as “decreased blood vessel tufts; also recorded: improvement”. The “Central vasoconstriction subscore, median” value ([1]; Oxygen + oct 20 bid) was 1, the “Extra retinal neovascularization subscore, median” value ([1]; Oxygen + oct 20 bid) was “decreased extra-retinal neovascularization; also recorded: improvement” and the “Blood vessel growth subscore, median (25th, 75th quartile)” value ([1]; Room air + oct 20 bid) was 0 (0, 0). For the same compound, the “Blood vessel tortuosity subscore, median (25th, 75th quartile)” value ([1]; Room air + oct 20 bid) was 0 (0, 0), the “Blood vessel tufts subscore, median (25th, 75th quartile)” value ([1]; Room air + oct 20 bid) was 0 (0, 0) and the “Central vasoconstriction subscore, median (25th, 75th quartile)” value ([1]; Room air + oct 20 bid) was 0 (0, 0). The “Extra retinal neovascularization subscore, median (25th, 75th quartile)” value ([1]; Room air + oct 20 bid) was 0 (0, 0), the “Hemorrhage subscore, median (25th, 75th quartile)” value ([1]; Room air + oct 20 bid) was 0 (0, 0) and the retinal neovascularization [1] was “inhibited retinal neovascularization in an equally effective manner”. The “median total retinopathy score” value ([1]; octreotide 10 μg kg^−1 bid P12-P16) was 6(3,7), the “median total retinopathy score [median(25th, 75th quartile)]” value [1] was “significant improvement” and the “median total retinopathy score [median(25th, 75th quartile)]” value ([1]; listed as octreoride) was 3.5(2.9, 4.3). The “growth as measured by animal weight” value [3] was “unaffected” and the “oxygen stimulated GH mRNA” value ([4]; oxygen + octreotide 20 μg kg^−1 bid P12-P16) was “markedly reduced”.
